Where two headings read alike, the source gives them in different places.
Experiments:
[1] = for hygroscopicity (absorption or adsorption of water molecules from the surrounding environment): result in words
Procedure: Moreover, crystalline benzoic acid salt of Formula I may also be characterized by its dynamic vapor sorption (DVS) water vapor sorption and desorption isotherms measured at 25° C. Before starting the sorption cycle the crystalline salt of Formula I sample is treated with dry nitrogen gas.
Moisture sorption/desorption isotherms were recorded on a DVS-1000 from Surface Measurement Systems. […] Typical total measurement times for both cycles were about 20 to 30 hours.

[2] = target: factor Xa assembled in the prothrombinase complex (Factor Xa, Factor Va, calcium and phospholipid) (Homo sapiens, UniProt P00742); conditions: cited from earlier work
factor Xa = target: T1, factor Xa (Homo sapiens, UniProt P00742); conditions: patients with stable coronary artery disease on usual comedication, some with mild renal impairment; cited from earlier work
T1 construct: from tissue; host or cells: blood of patients (in vivo; result quoted from Hinder et al. 2006)

acute coronary syndrome = conditions: humans, recent clinical findings; cited from earlier work
[3] = tested on: prothrombin fragments 1+2; conditions: highest dose regimen, versus unfractionated heparin; cited from earlier work
models of thrombosis = conditions: rodent, canine and porcine models; cited from earlier work
free factor Xa = free factor Xa (Homo sapiens, UniProt P00742); conditions: cited from earlier work
Chain of free factor Xa (P00742 235-488 limits assumed): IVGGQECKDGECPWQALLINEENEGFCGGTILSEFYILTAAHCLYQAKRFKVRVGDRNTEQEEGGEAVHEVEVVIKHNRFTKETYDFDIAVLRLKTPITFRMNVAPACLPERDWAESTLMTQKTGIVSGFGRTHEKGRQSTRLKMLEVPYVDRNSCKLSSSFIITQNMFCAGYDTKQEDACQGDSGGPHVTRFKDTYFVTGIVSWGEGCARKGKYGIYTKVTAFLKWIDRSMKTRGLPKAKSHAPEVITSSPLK
Chain of free factor Xa (P00742 41-179 partner limits assumed): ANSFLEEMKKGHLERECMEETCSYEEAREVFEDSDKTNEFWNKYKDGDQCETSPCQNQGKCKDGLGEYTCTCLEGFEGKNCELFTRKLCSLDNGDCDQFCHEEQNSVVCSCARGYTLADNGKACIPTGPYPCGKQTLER

T1 sequence (P00742 235-488 limits assumed): as the sequence (P00742 235-488 limits assumed) above
T1 sequence (P00742 41-179 partner limits assumed): as the sequence (P00742 41-179 partner limits assumed) above
Chain of factor Xa assembled in the prothrombinase complex (Factor Xa, Factor Va, calcium and phospholipid) (P00742 235-488 limits assumed): as the sequence (P00742 235-488 limits assumed) above
Chain of factor Xa assembled in the prothrombinase complex (Factor Xa, Factor Va, calcium and phospholipid) (P00742 41-179 partner limits assumed): as the sequence (P00742 41-179 partner limits assumed) above
Chain of factor Xa assembled in the prothrombinase complex (Factor Xa, Factor Va, calcium and phospholipid) (P12259 29-737 partner limits assumed): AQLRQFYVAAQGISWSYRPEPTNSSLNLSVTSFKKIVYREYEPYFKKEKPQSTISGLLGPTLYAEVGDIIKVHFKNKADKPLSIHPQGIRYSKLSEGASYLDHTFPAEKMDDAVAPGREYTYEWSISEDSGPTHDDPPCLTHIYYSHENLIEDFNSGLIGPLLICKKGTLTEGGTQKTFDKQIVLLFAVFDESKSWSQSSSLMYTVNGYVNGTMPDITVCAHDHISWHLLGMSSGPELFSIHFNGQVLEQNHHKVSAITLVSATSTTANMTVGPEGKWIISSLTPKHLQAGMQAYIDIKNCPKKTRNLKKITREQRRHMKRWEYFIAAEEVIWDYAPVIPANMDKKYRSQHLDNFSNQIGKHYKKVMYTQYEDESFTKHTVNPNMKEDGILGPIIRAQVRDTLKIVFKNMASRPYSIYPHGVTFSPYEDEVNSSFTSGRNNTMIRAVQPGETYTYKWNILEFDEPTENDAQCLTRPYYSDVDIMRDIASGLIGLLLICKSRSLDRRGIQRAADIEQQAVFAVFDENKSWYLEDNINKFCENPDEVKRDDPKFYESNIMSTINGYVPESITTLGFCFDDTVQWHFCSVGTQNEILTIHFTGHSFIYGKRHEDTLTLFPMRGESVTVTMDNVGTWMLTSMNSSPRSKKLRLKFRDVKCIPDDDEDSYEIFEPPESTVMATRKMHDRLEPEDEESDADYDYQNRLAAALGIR
Chain of factor Xa assembled in the prothrombinase complex (Factor Xa, Factor Va, calcium and phospholipid) (P12259 1574-2224 partner limits assumed): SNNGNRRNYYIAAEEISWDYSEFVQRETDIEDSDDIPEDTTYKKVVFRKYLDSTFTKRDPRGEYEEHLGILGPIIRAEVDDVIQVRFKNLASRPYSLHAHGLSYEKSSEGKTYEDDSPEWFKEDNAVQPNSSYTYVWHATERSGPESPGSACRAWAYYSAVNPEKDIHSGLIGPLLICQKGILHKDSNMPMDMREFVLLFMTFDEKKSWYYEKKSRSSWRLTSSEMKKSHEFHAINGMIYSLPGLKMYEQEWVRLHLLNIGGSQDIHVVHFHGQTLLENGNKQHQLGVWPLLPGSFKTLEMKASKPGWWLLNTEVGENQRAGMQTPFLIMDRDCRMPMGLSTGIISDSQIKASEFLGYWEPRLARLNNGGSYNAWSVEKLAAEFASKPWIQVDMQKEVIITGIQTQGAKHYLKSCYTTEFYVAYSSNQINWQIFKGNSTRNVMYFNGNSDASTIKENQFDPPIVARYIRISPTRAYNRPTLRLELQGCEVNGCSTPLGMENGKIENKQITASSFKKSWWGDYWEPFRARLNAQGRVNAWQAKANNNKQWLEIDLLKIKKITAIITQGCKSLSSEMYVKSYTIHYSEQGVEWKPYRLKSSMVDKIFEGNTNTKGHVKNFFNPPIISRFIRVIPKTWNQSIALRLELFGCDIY

Structure (SMILES): CCC(C)O.COC(=O)[C@H](Cc1cccc(C(=N)N)c1)[C@@H](C)NC(=O)c1ccc(-c2cc[n+]([O-])cc2)cc1.COC(=O)[C@H](Cc1cccc(C(=N)N)c1)[C@@H](C)NC(=O)c1ccc(-c2cc[n+]([O-])cc2)cc1.Cl.Cl [Methyl(2R,3R)-2-{3-[amino(imino)methyl]benzyl}-3-{[4-(1-oxidopyridin-4-yl)benzoyl]amino}butanoate monohydrochloride-hemi-2-butanol-solvate]
- Change In Mass (%) Desorption ([1]; Cycle 1, Target RH 0.0%): 0.35%
- Change In Mass (%) Sorption ([1]; Cycle 1, Target RH 0.0%): 0.00%
- Change In Mass (%) Desorption ([1]; Cycle 1, Target RH 10.0%): 3.33%
- Change In Mass (%) Hysteresis ([1]; Cycle 1, Target RH 10.0%): 2.54%
- Change In Mass (%) Sorption ([1]; Cycle 1, Target RH 10.0%): 0.79%
- Change In Mass (%) Desorption ([1]; Cycle 1, Target RH 20.0%): 5.29%
- Change In Mass (%) Hysteresis ([1]; Cycle 1, Target RH 20.0%): 4.01%
- Change In Mass (%) Sorption ([1]; Cycle 1, Target RH 20.0%): 1.28%
- Change In Mass (%) Desorption ([1]; Cycle 1, Target RH 40.0%): 7.14%
- Change In Mass (%) Hysteresis ([1]; Cycle 1, Target RH 40.0%): 4.91%
- Change In Mass (%) Sorption ([1]; Cycle 1, Target RH 40.0%): 2.22%
- Change In Mass (%) Desorption ([1]; Cycle 1, Target RH 60.0%): 9.78%
- Change In Mass (%) Hysteresis ([1]; Cycle 1, Target RH 60.0%): 6.09%
- Change In Mass (%) Sorption ([1]; Cycle 1, Target RH 60.0%): 3.69%
- Change In Mass (%) Desorption ([1]; Cycle 1, Target RH 80.0%): 16.92%
- Change In Mass (%) Hysteresis ([1]; Cycle 1, Target RH 80.0%): −0.87%
- Change In Mass (%) Sorption ([1]; Cycle 1, Target RH 80.0%): 17.79%
- Change In Mass (%) Desorption ([1]; Cycle 1, Target RH 90.0%): 26.07%
- Change In Mass (%) Hysteresis ([1]; Cycle 1, Target RH 90.0%): −0.59%
- Change In Mass (%) Sorption ([1]; Cycle 1, Target RH 90.0%): 26.66%
- Change In Mass (%) Desorption ([1]; Cycle 1, Target RH 95.0%): 34.13%
- Change In Mass (%) Sorption ([1]; Cycle 1, Target RH 95.0%): 34.13%
- Change In Mass (%) Desorption ([1]; Cycle 2, Target RH 0.0%): 0.34%
- Change In Mass (%) Sorption ([1]; Cycle 2, Target RH 0.0%): 0.35%
- Change In Mass (%) Desorption ([1]; Cycle 2, Target RH 10.0%): 3.17%
- Change In Mass (%) Hysteresis ([1]; Cycle 2, Target RH 10.0%): 2.48%
- Change In Mass (%) Sorption ([1]; Cycle 2, Target RH 10.0%): 0.69%
- Change In Mass (%) Desorption ([1]; Cycle 2, Target RH 20.0%): 4.97%
- Change In Mass (%) Hysteresis ([1]; Cycle 2, Target RH 20.0%): 3.65%
- Change In Mass (%) Sorption ([1]; Cycle 2, Target RH 20.0%): 1.32%
- Change In Mass (%) Desorption ([1]; Cycle 2, Target RH 40.0%): 6.78%
- Change In Mass (%) Hysteresis ([1]; Cycle 2, Target RH 40.0%): 4.11%
- Change In Mass (%) Sorption ([1]; Cycle 2, Target RH 40.0%): 2.67%
- Change In Mass (%) Desorption ([1]; Cycle 2, Target RH 60.0%): 9.41%
- Change In Mass (%) Hysteresis ([1]; Cycle 2, Target RH 60.0%): 4.84%
- Change In Mass (%) Sorption ([1]; Cycle 2, Target RH 60.0%): 4.57%
- Change In Mass (%) Desorption ([1]; Cycle 2, Target RH 80.0%): 16.37%
- Change In Mass (%) Hysteresis ([1]; Cycle 2, Target RH 80.0%): 2.94%
- Change In Mass (%) Sorption ([1]; Cycle 2, Target RH 80.0%): 13.43%
- Change In Mass (%) Desorption ([1]; Cycle 2, Target RH 90.0%): 25.32%
- Change In Mass (%) Hysteresis ([1]; Cycle 2, Target RH 90.0%): 1.41%
- Change In Mass (%) Sorption ([1]; Cycle 2, Target RH 90.0%): 23.91%
- Change In Mass (%) Desorption ([1]; Cycle 2, Target RH 95.0%): 32.86%
- Change In Mass (%) Sorption ([1]; Cycle 2, Target RH 95.0%): 32.86%
- hygroscopicity (absorption or adsorption of water molecules from the surrounding environment) [1]: hygroscopic

Structure (SMILES): COC(=O)[C@H](Cc1cccc(C(=N)N)c1)[C@@H](C)NC(=O)c1ccc(-c2cc[n+]([O-])cc2)cc1.O=C(O)c1ccccc1 [benzoic acid salt of methyl(2R,3R)-2-{3-[amino(imino)methyl]benzyl}-3-{[4-(1-oxidopyridin-4-yl)benzoyl]amino}butanoate]
- Change In Mass (%) Desorption ([1]; Cycle 1, Target RH 0.0%): −0.035%
- Change In Mass (%) Sorption ([1]; Cycle 1, Target RH 0.0%): 0.000%
- Change In Mass (%) Desorption ([1]; Cycle 1, Target RH 10.0%): 0.215%
- Change In Mass (%) Hysteresis ([1]; Cycle 1, Target RH 10.0%): 0.119%
- Change In Mass (%) Sorption ([1]; Cycle 1, Target RH 10.0%): 0.096%
- Change In Mass (%) Desorption ([1]; Cycle 1, Target RH 20.0%): 0.326%
- Change In Mass (%) Hysteresis ([1]; Cycle 1, Target RH 20.0%): 0.146%
- Change In Mass (%) Sorption ([1]; Cycle 1, Target RH 20.0%): 0.180%
- Change In Mass (%) Desorption ([1]; Cycle 1, Target RH 40.0%): 0.534%
- Change In Mass (%) Hysteresis ([1]; Cycle 1, Target RH 40.0%): 0.172%
- Change In Mass (%) Sorption ([1]; Cycle 1, Target RH 40.0%): 0.363%
- Change In Mass (%) Desorption ([1]; Cycle 1, Target RH 60.0%): 0.810%
- Change In Mass (%) Hysteresis ([1]; Cycle 1, Target RH 60.0%): 0.214%
- Change In Mass (%) Sorption ([1]; Cycle 1, Target RH 60.0%): 0.596%
- Change In Mass (%) Desorption ([1]; Cycle 1, Target RH 80.0%): 1.300%
- Change In Mass (%) Hysteresis ([1]; Cycle 1, Target RH 80.0%): 0.374%
- Change In Mass (%) Sorption ([1]; Cycle 1, Target RH 80.0%): 0.926%
- Change In Mass (%) Desorption ([1]; Cycle 1, Target RH 90.0%): 1.697%
- Change In Mass (%) Hysteresis ([1]; Cycle 1, Target RH 90.0%): 0.290%
- Change In Mass (%) Sorption ([1]; Cycle 1, Target RH 90.0%): 1.408%
- Change In Mass (%) Desorption ([1]; Cycle 1, Target RH 95.0%): 2.031%
- Change In Mass (%) Sorption ([1]; Cycle 1, Target RH 95.0%): 2.031%
- Change In Mass (%) Desorption ([1]; Cycle 2, Target RH 0.0%): −0.056%
- Change In Mass (%) Sorption ([1]; Cycle 2, Target RH 0.0%): −0.035%
- Change In Mass (%) Desorption ([1]; Cycle 2, Target RH 10.0%): 0.198%
- Change In Mass (%) Hysteresis ([1]; Cycle 2, Target RH 10.0%): 0.089%
- Change In Mass (%) Sorption ([1]; Cycle 2, Target RH 10.0%): 0.109%
- Change In Mass (%) Desorption ([1]; Cycle 2, Target RH 20.0%): 0.310%
- Change In Mass (%) Hysteresis ([1]; Cycle 2, Target RH 20.0%): 0.084%
- Change In Mass (%) Sorption ([1]; Cycle 2, Target RH 20.0%): 0.226%
- Change In Mass (%) Desorption ([1]; Cycle 2, Target RH 40.0%): 0.523%
- Change In Mass (%) Hysteresis ([1]; Cycle 2, Target RH 40.0%): 0.062%
- Change In Mass (%) Sorption ([1]; Cycle 2, Target RH 40.0%): 0.461%
- Change In Mass (%) Desorption ([1]; Cycle 2, Target RH 60.0%): 0.800%
- Change In Mass (%) Hysteresis ([1]; Cycle 2, Target RH 60.0%): 0.058%
- Change In Mass (%) Sorption ([1]; Cycle 2, Target RH 60.0%): 0.742%
- Change In Mass (%) Desorption ([1]; Cycle 2, Target RH 80.0%): 1.299%
- Change In Mass (%) Hysteresis ([1]; Cycle 2, Target RH 80.0%): 0.058%
- Change In Mass (%) Sorption ([1]; Cycle 2, Target RH 80.0%): 1.241%
- Change In Mass (%) Desorption ([1]; Cycle 2, Target RH 90.0%): 1.687%
- Change In Mass (%) Hysteresis ([1]; Cycle 2, Target RH 90.0%): 0.071%
- Change In Mass (%) Sorption ([1]; Cycle 2, Target RH 90.0%): 1.616%
- Change In Mass (%) Desorption ([1]; Cycle 2, Target RH 95.0%): 1.999%
- Change In Mass (%) Sorption ([1]; Cycle 2, Target RH 95.0%): 1.999%
- water uptake (DVS) ([1]; at 80% RH): 1.1%
- water uptake (DVS) ([1]; at 95% RH): 2.0%
- hygroscopicity (absorption or adsorption of water molecules from the surrounding environment) [1]: favorable reduced absorption or adsorption of water molecules

Structure (SMILES): COC(=O)[C@H](Cc1cccc(C(=N)N)c1)[C@@H](C)NC(=O)c1ccc(-c2cc[n+]([O-])cc2)cc1 (mixture of isomers) [Otamixaban, Methyl(2R,3R)-2-{3-[amino(imino)methyl]benzyl}-3-{[4-(1-oxidopyridin-4-yl)benzoyl]amino}butanoate]
- inhibition of factor Xa assembled in the prothrombinase complex [2]: inhibited
- factor Xa inhibition in patients (factor Xa): dose-dependent, rapid direct factor Xa inhibition
- clinical efficacy (acute coronary syndrome): efficacious
- clinical safety and tolerability (acute coronary syndrome): safe and well tolerated
- reduction of prothrombin fragments 1+2 [3]: reduced prothrombin fragments 1+2 significantly more than unfractionated heparin
- efficacy in models of thrombosis (models of thrombosis): highly efficacious
- inhibition of free factor Xa (free factor Xa): inhibited

From patent US8993602B2, “Benzoic acid salt of otamixaban” (Sanofi, priority 2011, dated 2015)
